From ChEMBL document CHEMBL1134219, “Gamma-lactone-Functionalized antitumoral acetogenins are the most potent inhibitors of mitochondrial complex I” (Bioorg Med Chem Lett, 2001)

Legend:
[1] = target: Mitochondrial complex I; NADH oxidoreductase (Bos taurus, UniProt P25708+P52505); test: Inhibition of NADH oxidase activity in sub-mitochondrial particles from bovine heart; assay type: functional
Bos taurus [2] = organism: Bos taurus; test: Inhibition of NADH-ubiquinone oxidoreductase using decylubiquinone (DB) acceptor; assay type: functional
Bos taurus [3] = organism: Bos taurus; test: Relative inhibition of NADH-ubiquinone oxidoreductase (DB) and NADH oxidase activity; assay type: functional
Bos taurus [4] = organism: Bos taurus; test: Relative NADH oxidase activity compared to Laherradurin and 36-dihydroisorolliniastatin-1; assay type: functional
[5] = Potency relative to NADH oxidase activity of and 36-dihydroisorolliniastatin-1
[6] = Potency relative to NADH oxidase activity of Laherradurin

Sequence of Mitochondrial complex I; NADH oxidoreductase (P25708 21-464 limits assumed, other chains not shown): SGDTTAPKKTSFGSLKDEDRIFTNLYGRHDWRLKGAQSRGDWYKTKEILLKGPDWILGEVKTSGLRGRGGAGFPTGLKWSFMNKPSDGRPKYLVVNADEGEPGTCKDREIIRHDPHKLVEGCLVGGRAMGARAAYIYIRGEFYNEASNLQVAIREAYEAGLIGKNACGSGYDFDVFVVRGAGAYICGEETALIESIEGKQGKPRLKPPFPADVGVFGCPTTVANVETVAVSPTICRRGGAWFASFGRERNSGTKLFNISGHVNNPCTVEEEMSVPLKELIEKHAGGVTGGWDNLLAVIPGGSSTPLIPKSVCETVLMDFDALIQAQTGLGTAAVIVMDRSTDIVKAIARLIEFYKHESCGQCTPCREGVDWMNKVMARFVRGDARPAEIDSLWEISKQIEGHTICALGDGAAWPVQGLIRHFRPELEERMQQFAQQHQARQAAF

| Compound | IC50 [1] [nM] | IC50 (Bos taurus [2]) [nM] | Ratio (Bos taurus [3]) | Relative potency (Bos taurus [4]) | Relative potency [5] | Relative potency [6] |
| --- | --- | --- | --- | --- | --- | --- |
| CCCCCCCCCC[C@H](O)[C@H]1CC[C@H]([C@H]2CC[C@H]([C@H](O)CCCCCCCCCCC3C(=O)O[C@@H](C)[C@@H]3O)O2)O1 (stereo not given in full) | 0.21 | 0.72 | 3.4 | 1.2 |  |  |
| CCCCCCCCCC[C@@H](O)[C@@H]1CC[C@@H]([C@@H](O)CC[C@H](O)[C@@H]2CC[C@@H](CCCCCCC[C@H]3CC(CC(C)O)C(=O)O3)O2)O1 (stereo not given in full) | 2.48 | 4.64 | 1.9 | 13.8 |  |  |
| CCCCCCCCCC[C@@H](O)[C@@H]1CC[C@@H]([C@@H](O)CC[C@H](O)[C@@H]2CC[C@@H](CCCCCCC[C@@H](O)CC3C[C@H](C)OC3=O)O2)O1 (stereo not given in full) | 1.22 | 3.32 | 2.7 | 6.8 |  |  |
| CCCCCCCCCC[C@H](O)[C@H]1CC[C@@H]([C@@H]2CC[C@H]([C@H](O)CCCCCCCCCC[C@@H](O)CC3C[C@H](C)OC3=O)O2)O1 (stereo not given in full) | 0.43 | 0.57 | 1.3 | 2.4 |  |  |
| CCCCCCCCCC[C@@H](O)[C@@H]1CC[C@@H]([C@@H](O)CC[C@H](O)[C@@H]2CC[C@@H](CCCCCCC[C@H]3CC(C/C(C)=N/O)C(=O)O3)O2)O1 (stereo not given in full) | 0.54 | 1.42 | 2.6 | 3 |  |  |
| CCCCCCCCCC[C@H](O)[C@H]1CC[C@@H]([C@@H]2CC[C@H]([C@H](O)CCCCCCCCCC[C@@H](O)CC3(O)C(=O)O[C@@H](C)[C@H]3O)O2)O1 (single isomer, unassigned) | 0.21 | 0.56 | 2.7 | 1.2 |  |  |
| CCCCCCCCCC[C@H](O)[C@H]1CC[C@@H]([C@@H]2CC[C@H]([C@H](O)CCCCCCCCCC[C@H]3CC(CC(C)=O)C(=O)O3)O2)O1 (stereo not given in full) | 0.33 | 1.21 | 3.7 | 1.8 |  |  |
| CCCCCCCCCC[C@H](O)[C@H]1CC[C@@H]([C@@H]2CC[C@H]([C@H](O)CCCCCCCCCC[C@H]3CC(C/C(C)=N/O)C(=O)O3)O2)O1 (stereo not given in full) | 0.23 | 0.22 | 1 | 1.3 |  |  |
| CCCCCCCCCC[C@@H](O)[C@@H]1CC[C@@H]([C@@H](O)CC[C@H](O)[C@@H]2CC[C@@H](CCCCCCC[C@@H](O)CC3=C[C@H](C)OC3=O)O2)O1 | 1.84 | 5.18 | 2.8 | 10.2 |  |  |
| CCCCCCCCCC[C@@H](O)[C@@H]1CC[C@@H]([C@@H](O)CC[C@H](O)[C@@H]2CC[C@@H](CCCCCCC[C@H]3CC(CC(C)=O)C(=O)O3)O2)O1 (stereo not given in full) | 0.83 | 2.88 | 3.5 | 4.6 |  |  |
| CCCCCCCCCC[C@H](O)[C@H]1CC[C@@H]([C@@H]2CC[C@H]([C@H](O)CCCCCCCCCC[C@@H](O)CC3=C[C@H](C)OC3=O)O2)O1 [rolliniastatin-1] |  | 0.74 | 1.2 | 3.3 |  |  |
| CCCCCCCCCC[C@@H](O)[C@@H]1CC[C@@H]([C@@H](O)CC[C@H](O)[C@@H]2CC[C@@H](CCCCCCC[C@@H](O)CC3(O)C(=O)O[C@H](C)[C@H]3O)O2)O1 (single isomer, unassigned) | 8.47 | 38.3 | 4.6 | 47.1 |  |  |
| CCCCCCCCCC[C@H](O)[C@H]1CC[C@H]([C@H]2CC[C@H]([C@H](O)CCCCCCCCCCCCC3C(=O)O[C@@H](C)[C@@H]3O)O2)O1 (stereo not given in full) [LAHERRADURIN] | 0.18 | 0.29 | 1.6 |  | 1 |  |
| CCCCCCCCCC[C@H](O)[C@H]1CC[C@@H]([C@@H]2CC[C@H]([C@H](O)CCCCCCCCCC[C@H]3CC(CC(C)O)C(=O)O3)O2)O1 (stereo not given in full) | 0.18 | 0.21 | 1.2 |  |  | 1 |
